This is an account of results in patent US7220437B2, “Antiviral and antibacterial activities of extracts from eight plants” (priority 1996, dated 2007).

In one series the test system is HIV-1 strain GH3. Kind of series: Anti-HIV cytopathicity, acute infection of M8166 cells. Type of series: cell-based. Particulars: high multiplicity of infection of 0.11424. A general note: Protection from cytopathic effect is a common read-out in antiviral testing.
The test system of the next series is HIV-2 strain GH1. Description: Anti-HIV-2 cytopathicity in Molt 4 clone 8 cells. Type of series: cell-based.
In another series the test system is Staphylococcus aureus. Kind of series: Bacteria growth, tetrazolium-based colorimetry.
Another series concerns Salmonella typhimurium. Description: Bacteria growth, tetrazolium-based colorimetry.
A further series relates to Klebsiella pneumoniae. Kind of series: Bacteria growth, tetrazolium-based colorimetry.
In a further series the test system is Edwardsiella species. Description: Bacteria growth, tetrazolium-based colorimetry.
Series [1] relates to PBMCs. Kind of series: Ex vivo effects on culture induced death of PBMCs of AIDS patients. Type of series: cell-based, human. Particulars: four AIDS patients; noncytotoxic concentrations.
Series [2] concerns PBMCs.
[3] abbreviates: MOI 0.018, treatment after 40 mins of virus adsorption.
The mark [4] stands for this setting: Salmonella enterica, TYPHIMURIUM
Setting [5] is: Edwardsiella, inoculum 10^1 CID50.
The mark [6] stands for this setting: Edwardsiella, inoculum 10^2 CID50.
Setting [7] is: Edwardsiella, inoculum 10^3 CID50.

≈ marks a conversion by molar mass, not a printed value. Where a name gives a salt, the structure may show the parent alone. Marks after values point to notes of the source that are not given here.

In the series on HIV-1 strain GH3, `Cc1cn([C@H]2C[C@H](N=[N+]=[N-])[C@@H](CO)O2)c(=O)[nH]c1=O` [AZT, 3′-azido-2′,3′-dideoxythymidine] yielded a cell protection of less than 90%. Further, the EC50 (in general, the midpoint of the concentration-response curve) in the series with HIV-2 strain GH1 (MOI 0.018, treatment 2 hrs after virus adsorption) was 0.000001 mg/mL (≈ 0.00374 µM); in the series with HIV-2 strain GH1 (setting [3]), <0.0000003* mg/ml. Further, in the series on HIV-2 strain GH1 (setting [3]), the EC90 (in general, the concentration at which the effect reaches the 90% level) is 0.3 µg/mL (≈ 1.12 µM).
Take `CC1(C)S[C@@H]2[C@H](NC(=O)Cc3ccccc3)C(=O)N2[C@H]1C(=O)[O-].[Na+]` [Penicillin G, sodium penicillin G]: the EC50 in the series on Staphylococcus aureus (inoculum 10^1 CID50) was less than 0.5 µg/mL; with Staphylococcus aureus (inoculum 10^2 CID50), less than 0.5 µg/mL; in the series on Staphylococcus aureus (inoculum 10^3 CID50), 2 µg/mL; in the series on Salmonella typhimurium (inoculum 10^1 CID50) it was 157 to 314 µg/mL; in the series with Klebsiella pneumoniae (inoculum 10^2 CID50) it was 75 µg/mL; in the series on Edwardsiella species (inoculum 10^1 CID50) it was 196 to 392 µg/mL. Moreover, the concentration giving a half-maximal response (EC50) is 196 to 392 µg/mL in the series with Edwardsiella species (inoculum 10^2 CID50) and >0.784* mg/ml with Edwardsiella species (inoculum 10^3 CID50). In addition, the concentration for an effect of 90% (EC90) with Staphylococcus aureus (inoculum 10^1 CID50) is less than 0.5 µg/mL; in the series on Staphylococcus aureus (inoculum 10^2 CID50), less than 0.5 µg/mL; with Staphylococcus aureus (inoculum 10^3 CID50), 2 to 4 µg/mL; with Salmonella typhimurium (inoculum 10^1 CID50), 0.157–0.314* mg/ml; in the series on Klebsiella pneumoniae (inoculum 10^2 CID50), 130 µg/mL; with Edwardsiella species (inoculum 10^1 CID50) it was 392 µg/mL. Moreover, the EC90 in the series on Edwardsiella species (inoculum 10^2 CID50) was 392 to 784 µg/mL; with Edwardsiella species (inoculum 10^3 CID50), more than 784 µg/mL.
Consider `[H]/N=C(/N)N[C@H]1[C@H](O)[C@@H](O)[C@H](O[C@@H]2O[C@@H](C)[C@](O)(C=O)[C@H]2O[C@@H]2O[C@@H](CO)[C@H](O)[C@@H](O)[C@@H]2NC)[C@@H](N/C(N)=N\[H])[C@@H]1O` [Streptomycin sulfate, streptomycin sulfate], for which the concentration for a half-maximal effect (EC50) was less than 0.4 µg/mL in the series with Staphylococcus aureus (Staphylococcus aureus); less than 0.4 µg/mL in the series with Staphylococcus aureus (inoculum 10^2 CID50); less than 0.4 µg/mL with Staphylococcus aureus (inoculum 10^3 CID50); 16 to 32 µg/mL in the series with Salmonella typhimurium (setting [4]); 16 to 32 µg/mL with Salmonella typhimurium (inoculum 10^2 CID50); 16 to 32 µg/mL in the series on Salmonella typhimurium (inoculum 10^3 CID50). For the same molecule, the EC50 with Klebsiella pneumoniae (Klebsiella pneumoniae) is less than 1 µg/mL; with Edwardsiella species (setting [5]), 63 µg/mL; in the series with Edwardsiella species (setting [6]) it was 63 µg/mL; in the series on Edwardsiella species (setting [7]), more than 500 µg/mL. Further, the EC90 in the series on Staphylococcus aureus (Staphylococcus aureus) was less than 0.4 µg/mL; in the series on Staphylococcus aureus (inoculum 10^2 CID50) it was less than 0.4 µg/mL; with Staphylococcus aureus (inoculum 10^3 CID50) it was less than 0.4 µg/mL; with Salmonella typhimurium (setting [4]) it was 16 to 32 µg/mL; in the series on Salmonella typhimurium (inoculum 10^2 CID50), 16 to 32 µg/mL; in the series with Salmonella typhimurium (inoculum 10^3 CID50), 16 to 32 µg/mL. Further, the EC90 in the series on Klebsiella pneumoniae (Klebsiella pneumoniae) is less than 1 µg/mL; with Edwardsiella species (setting [5]), 63 to 125 µg/mL; in the series with Edwardsiella species (setting [6]), 500 µg/mL; with Edwardsiella species (setting [7]), more than 500 µg/mL.
`Nc1ccn([C@H]2CC[C@@H](CO)O2)c(=O)n1` [ddCyd, 2′,3′-dideoxycytidine]: the “accelerated culture induced death of PBMCs from AIDS patients” value with PBMCs [1] is recorded as “effective in these patients except one AIDS patient”. The “toxicity towards PBMCs from the healthy person” value in the series on PBMCs [2] is reported as “no toxicity”.
`OC[C@@H]1CC[C@H](n2cnc3c(O)ncnc32)O1` [ddino, 2′,3′-dideoxyinosine]: the “accelerated culture induced death of PBMCs from AIDS patients” value with PBMCs [1] was “effective in these patients except one AIDS patient”.
